Reference: US11464802B2, “3-substituted piperidine compounds for Cbl-b inhibition, and use thereof” (Nurix Therapeutics, Inc., priority 2019, dated 2022)

Key:
[1] = test system: primary human total T-cells; test: Primary human total T-cell activation: IL-2 secretion, Biological Example 13; type: cell-based; conditions: 48 hours, fold change over baseline; for fold induction at 0.3 µM: inhibitor 0.3 μM; for fold induction at 0.3 µM / fold induction at 3 µM: Table 13-1; for fold induction at 1 µM: inhibitor 1 μM; for fold induction at 3 µM: inhibitor 3 μM
[2] = test system: primary human total T-cells; test: Primary human total T-cell activation: CD25 surface staining, Biological Example 9; type: cell-based; conditions: 48 hours, fold change over baseline; for fold induction at 0.3 µM: inhibitor 0.3 μM; for fold induction at 0.3 µM / fold induction at 3 µM: Table 9-1; for fold induction at 1 µM: inhibitor 1 μM; for fold induction at 3 µM: inhibitor 3 μM
[3] = test system: primary human total T-cells; test: Primary human total T-cell activation: CD25 surface staining, Biological Example 13; type: cell-based; conditions: 48 hours, fold change over baseline; for fold induction at 0.3 µM: inhibitor 0.3 μM; for fold induction at 0.3 µM / fold induction at 3 µM: Table 13-1; for fold induction at 1 µM: inhibitor 1 μM; for fold induction at 3 µM: inhibitor 3 μM
[4] = test system: primary human total T-cells; test: Primary human total T-cell activation: CD25 surface staining, Biological Example 2; type: cell-based; conditions: 48 hours, fold change over baseline; for fold induction at 0.3 µM: inhibitor 0.3 μM; for fold induction at 1 µM: inhibitor 1 μM; for fold induction at 3 µM: inhibitor 3 μM
Cbl-b [5] = target: T1, Cbl-b (Homo sapiens (Human), UniProt Q13191); test: Cbl-b displacement assay (Cbl-b inhibition assay), TR-FRET probe displacement, Biological Example 1; type: binding
T1 sequence (Q13191 36-427): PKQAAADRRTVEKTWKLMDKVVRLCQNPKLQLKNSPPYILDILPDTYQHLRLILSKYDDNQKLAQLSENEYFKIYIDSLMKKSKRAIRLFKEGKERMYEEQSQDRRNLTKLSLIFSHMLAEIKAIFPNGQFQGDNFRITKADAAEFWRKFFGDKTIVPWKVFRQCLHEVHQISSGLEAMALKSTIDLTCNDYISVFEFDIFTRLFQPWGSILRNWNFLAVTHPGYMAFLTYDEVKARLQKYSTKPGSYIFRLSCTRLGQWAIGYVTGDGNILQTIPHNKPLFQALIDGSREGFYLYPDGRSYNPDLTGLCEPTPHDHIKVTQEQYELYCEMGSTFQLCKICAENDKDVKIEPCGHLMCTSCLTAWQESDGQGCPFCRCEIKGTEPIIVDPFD
Procedure, shortened: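 TR-FRET displacement of a BODIPY FL-labelled inhibitor probe (150 nM, ~EC40) from biotin-Avitag truncated Cbl-b, detected via 2 nM streptavidin-Tb, 1 h, room temperature. Compound in 1% DMSO pre-incubated 1 h with Cbl-b at 0.5 nM (High) or 0.125 nM (Low) in 20 mM HEPES pH 7.5, 150 mM NaCl, 0.5 mM TCEP.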

Cbl-b [6] = target: T1, Cbl-b; test: Cbl-b displacement assay (Cbl-b inhibition assay), Biological Example 12; type: binding; conditions: Table 12-1
Procedure: (§1) Candidate compounds were evaluated for their ability to bind and inhibit Cbl-b, an E3 ubiquitin-protein ligase, as evidenced by their ability to displace a fluorophore-labeled probe bound to Cbl-b.
(§2) The ability of candidate compounds to displace a known inhibitor and thereby inhibit Cbl-b activity was measured by monitoring the interaction of Cbl-b with a fluorophore-labeled probe in the presence of the candidate compound. A truncated variant of Cbl-b (UniProt number Q13191) containing residues 36-427 and an Avitag at its N-terminus was co-expressed with BirA biotin ligase and purified using a standard protocol (see Dou et al., Nature Structural and Molecular Biology 8: 982-987, 2013; Avidity LLC).
(§3) Fluorescently-labeled inhibitor probe was synthesized and tagged with BODIPY FL. Cbl-b displacement assays were performed in a 384-well plate at room temperature in a 10 μl reaction volume by pre-incubating 0.5 nM Cbl-b or 0.125 nM Cbl-b (final concentration, indicated as “High” and “Low”, respectively) in an assay buffer containing 20 mM HEPES pH 7.5, 150 mM NaCl, 0.01% Triton X-100, 0.01% BSA and 0.5 mM TCEP in the presence of a candidate compound in 1% DMSO (final concentration) for 1 hour. After incubation in the presence of the candidate compound, the plate was incubated for an additional 1 hour in the presence of an approximate EC40 binding saturation consisting of 150 nM fluorescently-labeled inhibitor probe and 2 nM Streptavidin-Terbium (Cisbio) (final concentrations). Following the 1 hour incubation, the plates were read for TR-FRET signal at 520/620 nM using an Envision plate reader (Perkin Elmer).
(§4) The resulting data for the Cbl-b activity assays were analyzed using standard methods to determine the IC50 values for the tested compounds.

Cbl-b [7] = target: T1, Cbl-b; test: Cbl-b displacement assay (Cbl-b inhibition assay), Biological Example 8; type: binding; conditions: Table 8-1
Procedure: as §1, §2, §3, §4

[8] = test system: primary human total T-cells; test: Primary human total T-cell activation: IL-2 secretion, Biological Example 2; type: cell-based; conditions: 48 hours, fold change over baseline; for fold induction at 0.3 µM: inhibitor 0.3 μM; for fold induction at 1 µM: inhibitor 1 μM; for fold induction at 3 µM: inhibitor 3 μM
[9] = test system: primary human total T-cells; test: Primary human total T-cell activation: IL-2 secretion, Biological Example 9; type: cell-based; conditions: 48 hours, fold change over baseline; for fold induction at 0.3 µM: inhibitor 0.3 μM; for fold induction at 0.3 µM / fold induction at 3 µM: Table 9-1; for fold induction at 1 µM: inhibitor 1 μM; for fold induction at 3 µM: inhibitor 3 μM
[10] = anti-CD3/anti-CD28 co-stimulation
[11] = anti-CD3/anti-CD28 co-stimulation, Table 13-1, read-out: IL-2 secretion CD3/CD28 1 μM
[12] = anti-CD3 alone, Table 13-1, read-out: IL-2 secretion CD3 1 μM
[13] = anti-CD3/anti-CD28 co-stimulation, Table 9-1, read-out: CD25 staining CD3/CD28 1 μM
[14] = anti-CD3 alone, Table 9-1, read-out: CD25 staining CD3 1 μM
[15] = anti-CD3/anti-CD28 co-stimulation, Table 13-1, read-out: CD25 staining CD3/CD28 1 μM
[16] = anti-CD3 alone, Table 13-1, read-out: CD25 staining CD3 1 μM
[17] = anti-CD3/anti-CD28 co-stimulation, read-out: CD25 staining CD3/CD28 1 μM
[18] = anti-CD3 alone, read-out: CD25 staining CD3 1 μM
[19] = 0.5 nM Cbl-b final concentration (High), read-out: Cbl-b activity IC50 (High)
[20] = Cbl-b concentration (High or Low) not given, read-out: IC50 values in the Cbl-b inhibition assay of Biological Example 1
[21] = 0.5 nM Cbl-b final concentration (High), read-out: Cbl-b IC50 (High)
[22] = anti-CD3/anti-CD28 co-stimulation, read-out: IL-2 secretion CD3/CD28 1 μM
[23] = anti-CD3 alone, read-out: IL-2 secretion CD3 1 μM
[24] = anti-CD3/anti-CD28 co-stimulation, Table 9-1, read-out: IL-2 secretion CD3/CD28 1 μM
[25] = anti-CD3 alone, Table 9-1, read-out: IL-2 secretion CD3 1 μM
[26] = 0.125 nM Cbl-b final concentration (Low), read-out: Cbl-b IC50 (Low)

SMILES	fold induction at 0.3 µM [1, 10]	fold induction at 1 µM [1, 11]	fold induction at 1 µM [1, 12]	fold induction at 3 µM ([1]; anti-CD3 alone)	fold induction at 0.3 µM [2, 10]	fold induction at 1 µM [2, 13]	fold induction at 1 µM [2, 14]	fold induction at 3 µM ([2]; anti-CD3 alone)	fold induction at 0.3 µM [3, 10]	fold induction at 1 µM [3, 15]	fold induction at 1 µM [3, 16]	fold induction at 3 µM ([3]; anti-CD3 alone)	fold induction at 0.3 µM [4, 10]	fold induction at 1 µM [4, 17]	fold induction at 1 µM [4, 18]	fold induction at 3 µM ([4]; anti-CD3 alone)	IC50 (Cbl-b [5]; [20])	fold induction at 0.3 µM [8, 10]	fold induction at 1 µM [8, 22]	fold induction at 1 µM [8, 23]	further results
C[C@@H]1C[C@H](C)CN(Cc2cc3c(c(C(F)(F)F)c2)CN(c2cccc(C4(Cc5nncn5C)COC4)c2)C3=O)C1 [Compound 2, 6-{[(3R,5S)-3,5-dimethylpiperidin-1-yl]methyl}-2-(3-{3-[(4-methyl-1,2,4-triazol-3-yl)methyl]oxetan-3-yl}phenyl)-4-(trifluoromethyl)-3H-isoindol-1-one]	11 to 15	11 to 15	0.34 to 0.66	> 0.66	< 1.24	< 1.24	1.05 to 1.14	1.05 to 1.14	< 1.24	< 1.24	1.05 to 1.14	1.05 to 1.14	< 1.24	< 1.24	1.05 to 1.14	1.05 to 1.14	< 1 nM	> 15	> 15	0.34 to 0.66	IC50 (Cbl-b [5]; [19]): < 1 nM; IC50 (Cbl-b [6]; [21]): < 1 nM; IC50 (Cbl-b [7]; [21]): < 1 nM; fold induction at 3 µM ([8]; anti-CD3 alone): > 0.66; fold induction at 0.3 µM [9, 10]: 10 to 15; fold induction at 1 µM [9, 24]: 10 to 15; fold induction at 1 µM [9, 25]: 0.34 to 0.66; fold induction at 3 µM ([9]; anti-CD3 alone): > 0.66
CCOc1cc(C2(Cc3nncn3C)COC2)cc(N2Cc3c(cc(CN4CCC(F)(F)[C@H](C)C4)cc3C(F)(F)F)C2=O)n1 [Compound 28, (R)-6-((4,4-difluoro-3-methylpiperidin-1-yl)methyl)-2-(6-ethoxy-4-(3-((4-methyl-4H-1,2,4-triazol-3-yl)methyl)oxetan-3-yl)pyridin-2-yl)-4-(trifluoromethyl)isoindolin-1-one]	11 to 15	11 to 15	0.34 to 0.66	0.34 to 0.66	1.25 to 1.39	< 1.24	1.05 to 1.14	< 1.04	1.25 to 1.39	< 1.24	1.05 to 1.14	< 1.04	1.25 to 1.39	< 1.24	1.05 to 1.14	< 1.04	1 to 5 nM	> 15	> 15	0.34 to 0.66	IC50 (Cbl-b [5]; [19]): 1 to 5 nM; IC50 (Cbl-b [6]; [21]): 1 to 5 nM; IC50 (Cbl-b [7]; [21]): 1 to 5 nM; fold induction at 3 µM ([8]; anti-CD3 alone): 0.34 to 0.66; fold induction at 0.3 µM [9, 10]: 10 to 15; fold induction at 1 µM [9, 24]: 10 to 15; fold induction at 1 µM [9, 25]: 0.34 to 0.66; fold induction at 3 µM ([9]; anti-CD3 alone): 0.34 to 0.66
C[C@@H]1CN(Cc2cc(C(=O)Nc3cccc(C4(Cc5nncn5C)COC4)c3)nc(C3CC3)c2)CCC1(F)F [Compound 32, 6-cyclopropyl-4-{[(3R)-4,4-difluoro-3-methylpiperidin-1-yl]methyl}-N-(3-{3-[(4-methyl-1,2,4-triazol-3-yl)methyl]oxetan-3-yl}phenyl)pyridine-2-carboxamide]	> 15	> 15	> 0.66	> 0.66	> 1.39	> 1.39	> 1.14	> 1.14	> 1.39	> 1.39	> 1.14	> 1.14	< 1.24	< 1.24	1.05 to 1.14	1.05 to 1.14	< 1 nM	> 15	> 15	0.34 to 0.66	IC50 (Cbl-b [5]; [19]): < 1 nM; IC50 (Cbl-b [6]; [21]): < 1 nM; IC50 (Cbl-b [7]; [21]): < 1 nM; fold induction at 3 µM ([8]; anti-CD3 alone): 0.34 to 0.66; fold induction at 0.3 µM [9, 10]: > 15; fold induction at 1 µM [9, 24]: > 15; fold induction at 1 µM [9, 25]: > 0.66; fold induction at 3 µM ([9]; anti-CD3 alone): > 0.66
CCOc1cc(C2(Cc3nncn3C)COC2)cc(N2Cc3c(cc(CN4CCC[C@H](C)C4)cc3C(F)(F)F)C2=O)n1 [Compound 39, 2-(6-ethoxy-4-{3-[(4-methyl-1,2,4-triazol-3-yl)methyl]oxetan-3-yl}pyridin-2-yl)-6-{[(3S)-3-methylpiperidin-1-yl]methyl}-4-(trifluoromethyl)-3H-isoindol-1-one]	> 15	> 15	> 0.66	> 0.66	> 1.39	> 1.39	> 1.14	> 1.14	> 1.39	> 1.39	> 1.14	> 1.14	> 1.39	> 1.39	> 1.14	> 1.14	< 1 nM	> 15	> 15	> 0.66	IC50 (Cbl-b [5]; 0.125 nM Cbl-b final concentration (Low), read-out: Cbl-b activity IC50 (Low)): < 1 nM; IC50 (Cbl-b [6]; [26]): < 1 nM; IC50 (Cbl-b [7]; [26]): < 1 nM; fold induction at 3 µM ([8]; anti-CD3 alone): > 0.66; fold induction at 0.3 µM [9, 10]: > 15; fold induction at 1 µM [9, 24]: > 15; fold induction at 1 µM [9, 25]: > 0.66; fold induction at 3 µM ([9]; anti-CD3 alone): > 0.66
